Measurements from paper PMC2736638 (Journal of medicinal chemistry, 2009).
Where “and” joins values, the source holds several entries; their conditions need not be identical. Identical values can stand only once. Entries after “also recorded” stand apart in the source; their conditions may differ.

Legend:
HIV-1IIIB = HIV-1IIIB replication inhibition assay in MT-2 lymphocytes; type: cell-based; conditions: for TI = CC50/EC50: HIV-1IIIB, MT-2 cells
[1] = incubation time 0 min; 3 μM, 0.2 mg/mL human liver microsome, NADPH
HIV-1NL4-3 = HIV-1NL4-3 replication inhibition assay in MT-4 lymphocytes; type: cell-based; conditions: HIV-1NL4-3, MT-4 cells
Solubility = type: physicochemical; conditions: qualitative
in vitro = conditions: human, microsomes, pH 7.4

In the case of C=C(C)[C@@H]1CC[C@]2(C(=O)N[C@@H](CC(C)C)C(=O)O)CC[C@]3(C)[C@H](CC[C@@H]4[C@@]5(C)CC[C@H](O)C(C)(C)[C@@H]5CC[C@]43C)[C@@H]12 [Compound 22, N-[3β-Hydroxy-lup-20(29)-en-28-oyl]-leucine], the “EC50: concentration that inhibits HIV-1IIIB replication by 50%” value (HIV-1IIIB; HIV-1IIIB infected MT-2 cells, averages of at least three experiments) is reported as “did not exhibit antiviral replication activity”.
For C=C(C)[C@@H]1CC[C@]2(C(=O)NCCCCCCCC(=O)O)CC[C@]3(C)[C@H](CC[C@@H]4[C@@]5(C)CC[C@H](O)C(C)(C)[C@@H]5CC[C@]43C)[C@@H]12 [Compound 23, N-[3β-Hydroxy-lup-20(29)-en-28-oyl]-8-aminooctanoic acid], the “Persentage of Remaining Parent Compounds (X±SD)%” value [1] was 100.0%.
With C=C(C)[C@@H]1CC[C@]2(C(=O)NCCCCCCCC(=O)N[C@@H](CC(C)C)[C@H](O)CC(=O)O)CC[C@]3(C)[C@H](CC[C@@H]4[C@@]5(C)CC[C@H](O)C(C)(C)[C@@H]5CC[C@]43C)[C@@H]12 [Compound 3b, (3R,4S)-N’-[N-[3β-hydroxylup-20(29)-en-28-oyl]-8-aminooctanoyl]-4-amino-3-hydroxy-6-methylheptanoic acid] the “TI = CC50/EC50” value (HIV-1NL4-3) was greater than 112.4.
For C=C(C)[C@@H]1CC[C@]2(C(=O)N3CCC(CCCC(=O)NCCN4CCOCC4)CC3)CC[C@]3(C)[C@H](CC[C@@H]4[C@@]5(C)CC[C@H](OC(=O)CC(C)(C)C(=O)O)C(C)(C)[C@@H]5CC[C@]43C)[C@@H]12 [Compound 47, N’-[N-[3β-O-(3′,3′-Dimethylsuccinyl)-lup-20(29)-en-28-oyl]-4-piperidine-butanoyl]-2-aminoethylmorpholine], the “TI = CC50/EC50” value (HIV-1IIIB) was 2,473.
With C=C(CBr)[C@@H]1CC[C@]2(C(=O)N[C@@H](CC(C)C)C(=O)O)CC[C@]3(C)[C@H](CC[C@@H]4[C@@]5(C)CC[C@H](OC(=O)CC(C)(C)C(=O)O)C(C)(C)[C@@H]5CC[C@]43C)[C@@H]12 [Compound 30, N-[3β-O-(3′,3′-Dimethylsuccinyl)-30-bromo-lup-20(29)-en-28-oyl]-leucine] the “TI = CC50/EC50” value (HIV-1IIIB) was 3.0×10^3 and 3,022.
With C=C(C)[C@@H]1CC[C@]2(C(=O)N3CCC(CCCC(=O)O)CC3)CC[C@]3(C)[C@H](CC[C@@H]4[C@@]5(C)CC[C@H](OC(=O)CC(C)(C)C(=O)O)C(C)(C)[C@@H]5CC[C@]43C)[C@@H]12 [Compound 39, N-[3β-O-(3′,3′-Dimethylsuccinyl)-lup-20(29)-en-28-oyl]-4-piperidine butyric acid] the “TI = CC50/EC50” value (HIV-1IIIB) was 1.4 ×10^3 and 1,389.
With C=C(COCCN1CCOCC1)[C@@H]1CC[C@]2(C(=O)NCCCCCCCC(=O)O)CC[C@]3(C)[C@H](CC[C@@H]4[C@@]5(C)CC[C@H](O)C(C)(C)[C@@H]5CC[C@]43C)[C@@H]12 [Compound 20, N-[3β-Hydroxy-30-(2′-morpholinoethoxy)-lup-20(29)-en-28-oyl]-8-aminooctanoic acid] the solubility (Solubility) was “increase in the derivative’s solubility”.
With C=C(C)[C@@H]1CC[C@]2(C(=O)N3CCC(CCCC(=O)NCCCN4CCOCC4)CC3)CC[C@]3(C)[C@H](CC[C@@H]4[C@@]5(C)CC[C@H](OC(=O)CC(C)(C)C(=O)O)C(C)(C)[C@@H]5CC[C@]43C)[C@@H]12 [Compound 48, N’-[N-[3β-O-(3′,3′-Dimethylsuccinyl)-lup-20(29)-en-28-oyl]-4-piperidine-butanoyl]-3-aminopropylmorpholine] the “TI = CC50/EC50” value (HIV-1IIIB) was 3,087.
In the case of C=C(C)[C@@H]1CC[C@]2(C(=O)N3CCC(CCCC(=O)NC)CC3)CC[C@]3(C)[C@H](CC[C@@H]4[C@@]5(C)CC[C@H](OC(=O)CC(C)(C)C(=O)O)C(C)(C)[C@@H]5CC[C@]43C)[C@@H]12 [Compound 45, N’-[N-[3β-O-(3′,3′-Dimethylsuccinyl)-lup-20(29)-en-28-oyl]-4-piperidine-butanoyl]-aminomethane], the “TI = CC50/EC50” value (HIV-1NL4-3) is reported as greater than 41.7.
In the case of C=C(C)[C@@H]1CC[C@]2(C(=O)N3CCC(CCCC(=O)N4CCOCC4)CC3)CC[C@]3(C)[C@H](CC[C@@H]4[C@@]5(C)CC[C@H](OC(=O)CC(C)(C)C(=O)O)C(C)(C)[C@@H]5CC[C@]43C)[C@@H]12 [Compound 46, N’-[N-[3β-O-(3′,3′-Dimethylsuccinyl)-lup-20(29)-en-28-oyl]-4-piperidine-butanoyl]-morpholine], the “TI = CC50/EC50” value (HIV-1IIIB) is reported as 1,748.
For C=C(C)[C@@H]1CC[C@]2(C(=O)N3CCC(CCCC(=O)O)CC3)CC[C@]3(C)[C@H](CC[C@@H]4[C@@]5(C)CC[C@H](O)C(C)(C)[C@@H]5CC[C@]43C)[C@@H]12 [Compound 38, N-[3β-Hydroxy-lup-20(29)-en-28-oyl]-4-piperidine butyric acid], the half-life (in vitro) was roughly 125 min and the “Persentage of Remaining Parent Compounds (X±SD)%” value [1] was 100.0%.
For C=C(COCCN1CCOCC1)[C@@H]1CC[C@]2(C(=O)NCCCCCCCC(=O)NC)CC[C@]3(C)[C@H](CC[C@@H]4[C@@]5(C)CC[C@H](O)C(C)(C)[C@@H]5CC[C@]43C)[C@@H]12 [Compound 21], the solubility (Solubility) was “improved solubility; also recorded: good solubility”.
